Assay results: US20220362276A1, “Small Molecule Inhibitors of Viral Replication” (The Trustees of Princeton University, priority 2019, published 2022)
“Also recorded” adds a separate entry of the source.

Legend:
[1] = tested on: translation of T7-tagBFP-Gluc; assay: Translation inhibition assay (T7-tagBFP-Gluc RNA in Huh7 cells); format: cell-based; settings: 4 days
Source text: Generation of T7-tagBFP-Gluc. To make the T7-TagBFP-GLuc construct, SP6-TagBFP-2A-FLuc was used as a template and the primers PU-O-6099 and PU-O-6100 were designed to partially anneal immediately upstream and downstream of the SP6 promoter. The unbound portions of PU-O-6099 and PU-O-6100 contained the T7 promoter sequence. […] Next, PCR amplification of the T7-TagBFP-2A backbone was completed using the Q5® High-Fidelity DNA Polymerase and PU-O-6101 and PU-O-6102 as the primers. […] The Gluc insert was then ligated to the T7-TagBFP-2A backbone using the In-Fusion® HD Cloning Kit.
Translation Inhibition Assay. Huh7 cells were seeded at 6,250 cells per well in 96-well format. The cells were then transfected with 50 ng T7-TagBFP-Gluc in vitro transcribed RNA per well. Five hours post-transfection, transfection medium was changed to medium containing isocotoin, ribavirin, cycloheximide, or roclagamide at 6 or 7 different concentrations. DMSO concentration was kept constant in all the wells at 0.125%. For each drug dose, triplicate wells were tested. On day four post-transfection, a luciferase assay was performed on supernatant media to measure Gluc expression.

[2] = tested on: p6/Gluc (HEVΔORF2/3[Gluc]) replicon, KernowC1p6 genotype 3; assay: Dose titration against p6/Gluc replicon in Huh7 cells, Gaussia luciferase readout; format: cell-based, hepatitis E virus; settings: for inhibition of p6/Gluc (HEV) replication, in words: Huh7 cells, supernatant Gluc
Description: Gaussia luciferase assays.
Statistics—calculation of IC50. Half maximal inhibitory concentrations were calculated by graphing dose-titration data as nonlinear curve fits with three parameters using GraphPad Prism (v8.1.2).

Huh7 cells = assay: ATP-based cell viability assay (CellTiterGlo); settings: ATP live-cell viability assay
Description: Measurement of Cytotoxicity by CellTiterGlo Assay. […] Readout was performed using a Berthold luminometer.

SMILES | inhibition of p6/Gluc (HEV) replication, in words [2] | cytotoxicity / inhibition of cell growth, in words (Huh7 cells) | other results
COc1ccc([C@@]23Oc4cc(OC)cc(OC)c4C2(O)[C@H](O)[C@H](C(=O)N(C)C)[C@H]3c2ccccc2)cc1 (stereo in doubt) [roclagamide, (1R,2R,3S,3aR,8bS)-1,8b-dihydroxy-6,8-dimethoxy-3a-(4-methoxyphenyl)-N,N-dimethyl-3-phenyl-2,3-dihydro-1H-cyclopenta[b][1]benzofuran-2-carboxamide, reference compound] |  |  | suppression of Gluc levels [1]: ~10 fold
C=CCNC1=C2C[C@@H](C)C[C@H](OC)[C@H](O)[C@@H](C)/C=C(\C)[C@H](OC(N)=O)[C@@H](OC)/C=C\C=C(/C)C(=O)NC(=CC1=O)C2=O [17-AAG, [(4E,6Z,8S,9S,10E,12S,13R,14S,16R)-13-hydroxy-8,14-dimethoxy-4,10,12,16-tetramethyl-3,20,22-trioxo-19-(prop-2-enylamino)-2-azabicyclo[16.3.1]docosa-1(21),4,6,10,18-pentaen-9-yl] carbamate, reference compound] | inhibited HEV replication; also recorded: potent inhibitors | cytostatic properties; also recorded: inhibitors of cell growth | 
CCNC(=O)c1noc(-c2cc(C(C)C)c(O)cc2O)c1-c1ccc(CN2CCOCC2)cc1 [AUY-922, 5-(2,4-dihydroxy-5-propan-2-ylphenyl)-N-ethyl-4-[4-(morpholin-4-ylmethyl)phenyl]-1,2-oxazole-3-carboxamide, reference compound] | inhibited HEV replication; also recorded: potent inhibitors; also recorded: most potent analogs |  | 
O=C(c1ccc(Cl)cc1)c1ccc(O)cc1O [IBS102, (4-chlorophenyl)-(2,4-dihydroxyphenyl)methanone] |  |  | fold greater decrease in RLU than isocotoin ([2]; 25 μM dose, first round of SAR): approximately 10 fold
COc1ccc(-c2c(C)noc2-c2ccc(O)cc2O)cc1 [IBS672, 4-[4-(4-methoxyphenyl)-3-methyl-1,2-oxazol-5-yl]benzene-1,3-diol] |  |  | fold greater decrease in RLU than isocotoin ([2]; 1.5625 μM, second round of SAR): approximately 40 fold
CC(C)c1cc(-c2n[nH]c(=O)n2-c2ccc3c(ccn3C)c2)c(O)cc1O [STA-9090, 3-(2,4-dihydroxy-5-propan-2-ylphenyl)-4-(1-methylindol-5-yl)-1H-1,2,4-triazol-5-one, reference compound] | inhibited HEV replication; also recorded: potent inhibitors | cytostatic properties; also recorded: inhibitors of cell growth | 
CCNC(=O)c1noc(-c2cc(Cl)c(O)cc2O)c1-c1ccc(OC)cc1 [VER-50589, 5-(5-chloro-2,4-dihydroxyphenyl)-N-ethyl-4-(4-methoxyphenyl)-1,2-oxazole-3-carboxamide, reference compound] | inhibited HEV replication; also recorded: potent inhibitors; also recorded: most potent analogs | cytostatic properties; also recorded: inhibitors of cell growth | 
C[C@@H]1C[C@@H]([C@H](O)CC2CC(=O)NC(=O)C2)C(=O)[C@@H](C)C1 [cycloheximide, reference compound] |  |  | suppression of Gluc levels [1]: ~10 fold
C[C@H]1O[C@@H](O[C@H]2[C@@H](O)C[C@H](O[C@H]3[C@@H](O)C[C@H](O[C@H]4CC[C@@]5(C)[C@H](CC[C@@H]6[C@@H]5CC[C@]5(C)[C@@H](C7=CC(=O)OC7)[C@@H](O)C[C@]65O)C4)O[C@@H]3C)O[C@@H]2C)C[C@H](O)[C@@H]1O [gitoxin] | dose-dependent inhibition | high cytotoxicity | 
